Results taken from patent US6861524B2, “Acyl and sulfonyl derivatives of 6,9-disubstituted 2-(trans-1,4-diaminocyclohexyl)-purines and their use as antiproliferative agents” (Aventis Pharmaceuticals Inc., priority 2000, dated 2005).
Counter-ions that a name gives are not always drawn. Like-named read-outs stand apart in the source and are kept apart here. Values belong to the compound of their own block, whether it stands above or below them.

How the values were obtained:
cdk1/cyclin B = cdk1/cyclin B (Homo sapiens, UniProt P06493); experiment: Cyclin-dependent kinase assay, cdk1/cyclin B (Histone H1 substrate)
cdk4/cyclin D1 = cdk4/cyclin D1 (Homo sapiens, UniProt P11802); experiment: Cyclin-dependent kinase assay, cdk4/cyclin D1 (GST-pRb substrate); assay type: biochemical; conditions: inhibition of cyclin D1/CDK 4 enzyme activity
[1] = Plasma pharmacokinetics in mice after single intravenous cassette doses; conditions: for Mean Conc. in plasma: mice
PC-3 = experiment: In vitro proliferation assay (MTT), PC-3; assay type: cell-based, human
Experimental: (§1) The proliferation of tumor cells can be measured using a tetrazolium salt-based assay known as the MTT (3-[4,5-Dimethylthiazol-2-yl]-2,5-diphenyltetrazolium bromide) assay. […] For the assay, the cell lines are plated onto 96 well plates at 1000 to 2500 cells/well (depending on the properties of the individual cell lines), left to attach and recover overnight. […] After 3 days, the cells are incubated with MTT dye (3-[4,5-Dimethylthiazol-2-yl]-2,5-diphenyltetrazolium bromide, Sigma #M5655, 10 mg/ml in Hank's Buffered Saline) to estimate the amount of live cells remaining vs. concentration for the test compounds. […] The MTT and culture medium is then removed from the cultures and 200 μl of DMSO is added to solubilize the dye from the cell layer. The absorbance at 570 nm is determined for each culture using a Spectramax plate reader (Molecular Devices).
(§2) IC50s were determined from the raw data from either the MTT or SRB assays.
(§3) All of the cell lines were obtained from American Type Tissue Collection, with the ATCC accession number in parentheticals. MCF-7 and MDA-MB-231 cells were grown in improved minimum essential medium (Biofluids) without phenol red, supplemented with 5% fetal bovine serum, 0.01 mg/ml gentamicin and 3 mM L-glutamine.

[2] = Red blood cell binding (RBC to plasma ratio), human whole blood; assay type: in vitro ADME; conditions: 30 minutes at 37° C., nominal 500 ng/ml
Experimental: (§4) Compounds, including one positive control, are assessed for red blood cell (RBC) uptake, using a modified procedure based on the protocol reported in Sun, J. X. S., et al. High-performance liquid chromatographic analysis, plasma protein binding and red blood cell partitioning of phenprobamate. Biopharmaceutics and Drug Disposition, 8 (1987) 341-351.
(§5) Briefly, RBC uptake is evaluated by comparison of the levels in spiked plasma (n=3) and plasma isolated from spiked whole blood (n=3). Compounds are incubated with human and mouse whole blood, respectively, for 30 minutes at 37° C. using a nominal concentration of 500 ng/ml. Following centrifugation, the plasma is removed and submitted for analysis. Each compound is also spiked into blank plasma at a nominal concentration of 500 ng/ml, and submitted for analysis. Levels in the two plasma samples (Cp′ and Cp in the equation below) and the blood hematocrit are used to determine the red blood cell to plasma ratio (Crbc/Cp). [formula] In equation 1, Cp′ is the level of drug in the spiked “blank” plasma, Cp is the level of drug in the plasma of spiked whole blood, and H is the hematocrit. The hematocrit values are determined as 0.4 for human whole blood and 0.41 for mouse whole blood. The samples are analyzed with ESI LC/MS, using positive ion detection with an internal standard.
(§6) The red blood cell to plasma ratio is determined for each compound using equation 1. Tables 6 and 7 summarize the respective mean Crbc/Cp values and standard deviations for mouse and human whole blood, respectively, in descending order based on the red blood cell to plasma ratio, where “*” denotes Positive Control, and “ND” denotes Not Determined. MDL 108552 is included as a positive control for red blood cell uptake.

[3] = Red blood cell binding (RBC to plasma ratio), mouse whole blood; assay type: in vitro ADME; conditions: 30 minutes at 37° C., nominal 500 ng/ml, hematocrit 0.41
Experimental: as §4, §5, §6

SMC = conditions: in vitro and in vivo; Ruef et al. 1999; cited from earlier work
[4] = test system: PC12 cells, or rat sympathetic neurons; conditions: Park et al. 1997, cited from earlier work; for concentration giving maximal protection from death: camptothecin-treated PC12 cells or rat sympathetic neurons; for cell death at day 6: camptothecin-treated neuronal cells
HL-60 human leukemia = HL-60 human leukemia xenograft in nude mice; assay type: in vivo; conditions: Table 5; 1 mg/kg ip q1d 5x/wk; control 8341 ± 5355
Experimental: Antitumor efficacy is assessed using two subcutaneous human tumor xenograft models. The studies are performed using conventional assay techniques. Briefly, HL-60 (leukemia, 5×10^5 cells) and PC-3 (prostate, 5×10^6 cells) tumor cells are injected subcutaneously into nude mice (Cr1-CD1-Br-nu, Charles River Laboratory, Wilmington, Mass.). Dosing with compounds began when tumors reached 50 to 100 mm^3. The dose route/schedule for the test compounds is ip/q1d (5×/wk). The test doses are set based on the maximum tolerated dose (MTD). […] The test doses for the efficacy studies are set at ⅓rd the MTD (low dose) and the MTD (high dose). The results are shown in Tables 4 and 5 (HL-60, leukemia) (PC-3, prostate cancer). The length of the treatment phase is dependent on the tumor growth rate for the two models. This treatment phase is typically about 3 weeks for the HL-60 model and about 5 weeks for the PC-3 model. […] Dosing with flavopiridol is for the same time frame as for the experimental compounds in both xenograft models. Tumor volume (twice weekly) and body weights (once weekly) are monitored throughout the course of the treatment phase of the experiment. Tumor sizes are measured by external caliper measurements of protruding tumor. Volumes are calculated using the following formula: volume=½ (a×b2), where b is the smaller of two perpendicular diameters.

herpes simplex virus = conditions: Schang et al. 1998; cited from earlier work
cortical neurons = conditions: Park et al. 1997; cited from earlier work
cdk2/cyclin E = cdk2/cyclin E (Homo sapiens, UniProt P24941); experiment: Cyclin-dependent kinase assay, cdk2/cyclin E (GST-pRb substrate); conditions: read-out: CDK2 IC50; inhibition of cyclin E/CDK 2 enzyme activity
MDA-MB-435 = experiment: In vitro proliferation assay (MTT), MDA-MB-435; assay type: cell-based, human; conditions: mean (SD, n) where given, read-out: MB-435 Breast (IC50 μM)
Experimental: as §1, §2, §3

Chain of cdk4/cyclin D1 (P11802 whole entry): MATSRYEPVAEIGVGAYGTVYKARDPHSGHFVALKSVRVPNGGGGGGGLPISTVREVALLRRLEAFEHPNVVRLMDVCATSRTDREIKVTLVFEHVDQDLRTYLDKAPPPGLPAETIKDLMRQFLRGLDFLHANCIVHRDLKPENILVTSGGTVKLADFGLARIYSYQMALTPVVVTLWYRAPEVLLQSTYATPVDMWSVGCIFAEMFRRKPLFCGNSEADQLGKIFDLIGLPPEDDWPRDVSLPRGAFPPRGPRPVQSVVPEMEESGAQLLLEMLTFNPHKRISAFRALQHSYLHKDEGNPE
Chain of cdk4/cyclin D1 (P24385 whole entry partner): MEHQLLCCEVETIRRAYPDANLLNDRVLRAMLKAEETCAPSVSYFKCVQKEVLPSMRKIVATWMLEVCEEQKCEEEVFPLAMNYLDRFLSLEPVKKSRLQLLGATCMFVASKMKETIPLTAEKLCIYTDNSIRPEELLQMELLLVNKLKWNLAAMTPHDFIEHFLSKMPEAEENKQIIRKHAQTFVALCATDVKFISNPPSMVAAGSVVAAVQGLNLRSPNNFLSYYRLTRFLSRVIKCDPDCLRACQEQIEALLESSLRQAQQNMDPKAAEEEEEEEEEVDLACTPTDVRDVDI
Chain of cdk1/cyclin B (P06493 whole entry): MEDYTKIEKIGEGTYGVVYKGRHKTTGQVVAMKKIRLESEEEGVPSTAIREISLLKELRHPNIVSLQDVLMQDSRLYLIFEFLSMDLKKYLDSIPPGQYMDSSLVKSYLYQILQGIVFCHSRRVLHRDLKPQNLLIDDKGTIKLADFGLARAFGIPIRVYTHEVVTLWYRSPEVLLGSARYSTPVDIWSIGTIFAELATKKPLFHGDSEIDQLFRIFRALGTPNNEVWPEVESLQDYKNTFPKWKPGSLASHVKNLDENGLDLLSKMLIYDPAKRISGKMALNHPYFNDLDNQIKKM
Chain of cdk1/cyclin B (P14635 whole entry partner): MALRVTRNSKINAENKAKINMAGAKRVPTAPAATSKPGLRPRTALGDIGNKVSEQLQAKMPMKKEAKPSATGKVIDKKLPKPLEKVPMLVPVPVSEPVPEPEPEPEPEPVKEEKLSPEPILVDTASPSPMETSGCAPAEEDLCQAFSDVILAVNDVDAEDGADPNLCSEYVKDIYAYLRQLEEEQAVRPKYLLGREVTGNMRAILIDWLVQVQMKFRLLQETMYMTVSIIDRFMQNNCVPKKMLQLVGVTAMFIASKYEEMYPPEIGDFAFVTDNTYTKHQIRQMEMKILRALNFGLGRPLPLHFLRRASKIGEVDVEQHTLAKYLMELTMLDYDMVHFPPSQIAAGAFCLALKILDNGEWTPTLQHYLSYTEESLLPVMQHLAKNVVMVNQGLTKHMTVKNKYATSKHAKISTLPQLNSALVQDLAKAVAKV

IC50 (cdk1/cyclin B): 0.009 µM
IC50 (cdk4/cyclin D1): 0.005 µM
Compound: N[C@H]1CC[C@H](Nc2nc(NC3CCN(S(=O)(=O)c4cccs4)CC3)c3ncn(C4CCCC4)c3n2)CC1 [Compound 128, trans-N^2&-(4-Amino-cyclohexyl)-9-cyclopentyl-N^6-[1-(thiophene-2-sulfonyl)-piperidin-4-yl]-9H-purine-2,6-diamine dihydrochloride]

Compound: Cl.Cl.N[C@H]1CC[C@H](Nc2nc(NC3CCN(C(=O)Oc4ccc(F)cc4)CC3)c3ncn(C4CCCC4)c3n2)CC1 [Compound 87, trans-4-[2-(4-Amino-cyclohexylamino)-9-cyclopentyl-9H-purin-6-ylamino]-piperidine-1-carboxylic acid 4-fluoro-phenyl ester dihydrochloride]
Mean Conc. in plasma ([1]; Cassette #3, single 15 mg/kg iv cassette dose (3 mg/kg/compound), 0.083 h): 1171.4 ± 153.4 ng/mL
Mean Conc. in plasma ([1]; Cassette #3, single 15 mg/kg iv cassette dose (3 mg/kg/compound), 0.25 h): 371.9 ± 35.9 ng/mL
Mean Conc. in plasma ([1]; Cassette #3, single 15 mg/kg iv cassette dose (3 mg/kg/compound), 0.5 h): 141.4 ± 9.5 ng/mL
Mean Conc. in plasma ([1]; Cassette #3, single 15 mg/kg iv cassette dose (3 mg/kg/compound), 1 h): 65.0 ± 14.0 ng/mL
Mean Conc. in plasma ([1]; Cassette #3, single 15 mg/kg iv cassette dose (3 mg/kg/compound), 3 h): 19.2 ± 6.0 ng/mL
Mean Conc. in plasma ([1]; Cassette #3, single 15 mg/kg iv cassette dose (3 mg/kg/compound), 6 h): 4.3 ± 0.7 ng/mL
Mean Conc. in plasma ([1]; Cassette #3, single 15 mg/kg iv cassette dose (3 mg/kg/compound), 8 h): 3.2 ± 1.6 ng/mL
Mean Conc. in plasma ([1]; Cassette #3, single 15 mg/kg iv cassette dose (3 mg/kg/compound), 24 h): BLQ^a
IC50 (PC-3; Homo sapiens, PC-3, read-out: PC-3 Prostate (IC50 μM)): 0.16 µM
Mean Red Blood Cell to Plasma Ratio [2]: 8.4
Mean Red Blood Cell to Plasma Ratio [3]: 3.4

Compound: CN1CC[C@H](c2c(O)cc(O)c3c(=O)cc(-c4ccccc4Cl)oc23)[C@H](O)C1 [Flavopiridol]
SMC growth (SMC): inhibit SMC growth in vitro and in vivo
concentration giving maximal protection from death [4]: 1 µM
cell death at day 6 [4]: approximately 30%

IC50 (cdk1/cyclin B): 0.051 µM
IC50 (cdk4/cyclin D1): 0.293 µM
Compound: NC1CCC(Nc2nc(NC3CCN(C(=O)[C@@H]4C[C@H]4c4ccccc4)CC3)c3ncn(C4CCCC4)c3n2)CC1 (mixture of isomers) [Compound 43, (±)-trans-1-{4-[2-(4-Amino-cyclohexylamino)-9-cyclopentyl-9H-purin-6-ylamino]-piperidin-1-yl}-1-(2-phenyl-cyclopropyl)-methanone dihydrochloride]

IC50 (cdk1/cyclin B): 0.025 µM
IC50 (cdk4/cyclin D1): 0.683 µM
Compound: CC(C)=CC(=O)N1CCC(Nc2nc(N[C@H]3CC[C@H](N)CC3)nc3c2ncn3C2CCCC2)CC1 [Compound 30, trans 1-{4-[2-(4-Amino-cyclohexylamino)-9-cyclopentyl-9#H!-purin-6-ylamino]-piperidin-1-yl}-3-methyl-but-2-en-1-one dihydrochloride]

Compound: Cc1ccc(OC(=O)N2CCC(Nc3nc(N[C@H]4CC[C@H](N)CC4)nc4c3ncn4C3CCCC3)CC2)cc1.Cl.Cl [Compound 82, trans-4-[2-(4-Amino-cyclohexylamino)-9-cyclopentyl-9H-purin-6-ylamino]-piperidine-1-carboxylic acid p-tolyl ester dihydrochloride]
HL60 Mean Vol. ± SD (HL-60 human leukemia): 5164 ± 5516
Mean Conc. in plasma ([1]; Cassette #4, single 15 mg/kg iv cassette dose (3 mg/kg/compound), 0.083 h): 1458.0 ± 77.4 ng/mL
Mean Conc. in plasma ([1]; Cassette #4, single 15 mg/kg iv cassette dose (3 mg/kg/compound), 0.25 h): 875.3 ± 96.7 ng/mL
Mean Conc. in plasma ([1]; Cassette #4, single 15 mg/kg iv cassette dose (3 mg/kg/compound), 0.5 h): 369.6 ± 40.0 ng/mL
Mean Conc. in plasma ([1]; Cassette #4, single 15 mg/kg iv cassette dose (3 mg/kg/compound), 1 h): 133.7 ± 16.3 ng/mL
Mean Conc. in plasma ([1]; Cassette #4, single 15 mg/kg iv cassette dose (3 mg/kg/compound), 3 h): 37.5 ± 10.7 ng/mL
Mean Conc. in plasma ([1]; Cassette #4, single 15 mg/kg iv cassette dose (3 mg/kg/compound), 6 h): 14.5 ± 3.4 ng/mL
Mean Conc. in plasma ([1]; Cassette #4, single 15 mg/kg iv cassette dose (3 mg/kg/compound), 8 h): 12.3 ± 2.2 ng/mL
Mean Conc. in plasma ([1]; Cassette #4, single 15 mg/kg iv cassette dose (3 mg/kg/compound), 24 h): BLQ
Cls ([1]; mouse plasma, iv Cassette #4, 3 mg/kg/compound (15 mg/kg total dose)): 53.0 mL/min/kg
Mean Red Blood Cell to Plasma Ratio [2]: 5.8

IC50 (cdk1/cyclin B): 0.089 µM
IC50 (cdk4/cyclin D1): 0.476 µM
Compound: CCCCc1ccc(C(=O)N2CCC(Nc3nc(N[C@H]4CC[C@H](N)CC4)nc4c3ncn4C3CCCC3)CC2)cc1 [Compound 21, trans-1-{4-[2-(4-Amino-cyclohexylamino)-9-cyclopentyl-9H-purin-6-ylamino]-piperidin-1-yl}-1-(4-butyl-phenyl)-methanone]

IC50 (cdk1/cyclin B): 0.129 µM
IC50 (cdk4/cyclin D1): 1.49 µM
Compound: N[C@H]1CC[C@H](Nc2nc(NC3CCN(C(=O)/C=C/c4cccc(C(F)(F)F)c4)CC3)c3ncn(C4CCCC4)c3n2)CC1 [Compound 44, trans-(E)-1-{4-[2-(4-Amino-cyclohexylamino)-9-cyclopentyl-9H-purin-6-ylamino]-piperidin-1-yl}-3-(3-trifluoromethyl-phenyl)-propenone dihydrochloride]

Compound: Cn1cnc2c(NCc3ccccc3)nc(NCCO)nc21 [Olomoucine, 6-(benzylamino)-2-[(2-hydroxyethyl)amino]-9-methylpurine]
replication of herpes simplex virus (herpes simplex virus): inhibited the replication
concentration giving maximal protection from death [4]: 200 µM
cell death at day 6 [4]: approximately 30%

Compound: Cn1cnc2nc(NCCO)nc(NCc3ccccc3)c21 [iso-olomoucine]
prevention of cell death of camptothecin-treated neuronal cells ([4]; PC12 cells / sympathetic neurons): failed to prevent the cell death
prevention of cell death of camptothecin-treated neuronal cells (cortical neurons): failed to prevent the cell death

Compound: trans-3-{4-[2-(4-Amino-cyclohexylamino)-9-cyclopentyl-9H-purin-6-ylamino]-piperidine-1-sulfonyl}-benzoic acid methyl ester dihydrochloride [Compound 135]
IC50 (cdk2/cyclin E): 0.004 µM
IC50 (MDA-MB-435): 3.38 µM
IC50 (PC-3; MTT assay, mean (SD, n) where given, read-out: PC-3 Prostate (IC50 μM)): 4.05 µM
IC50 (cdk1/cyclin B; read-out: CDK1 IC50, inhibition of cyclin B/CDK 1 enzyme activity): 0.08 µM
IC50 (cdk4/cyclin D1): 0.062 µM
